Common to all, as to format: biochemical
Assay [1] addresses T1, BTK-WT (Homo sapiens, UniProt Q06187).
T1 construct: purified from insect cells as a full-length construct containing an N-terminal 6X-His tag; His6 (N); made in house; host or cells: insect cells (baculovirus Sf21 in Method B)
In words: Btk in vitro inhibitory activity (one of Method A TR-FRET, Method B electrophoretic mobility shift, Method C radiometric filter binding). Conditions: E compounds, Table 17; read-out: IC50 BTK-WT. Background: A gel shift assay detects complexes by their altered migration in electrophoresis.

Assay [2] concerns the target T2, ITK (Homo sapiens, UniProt Q08881).
T2 sequence (Q08881 1-620): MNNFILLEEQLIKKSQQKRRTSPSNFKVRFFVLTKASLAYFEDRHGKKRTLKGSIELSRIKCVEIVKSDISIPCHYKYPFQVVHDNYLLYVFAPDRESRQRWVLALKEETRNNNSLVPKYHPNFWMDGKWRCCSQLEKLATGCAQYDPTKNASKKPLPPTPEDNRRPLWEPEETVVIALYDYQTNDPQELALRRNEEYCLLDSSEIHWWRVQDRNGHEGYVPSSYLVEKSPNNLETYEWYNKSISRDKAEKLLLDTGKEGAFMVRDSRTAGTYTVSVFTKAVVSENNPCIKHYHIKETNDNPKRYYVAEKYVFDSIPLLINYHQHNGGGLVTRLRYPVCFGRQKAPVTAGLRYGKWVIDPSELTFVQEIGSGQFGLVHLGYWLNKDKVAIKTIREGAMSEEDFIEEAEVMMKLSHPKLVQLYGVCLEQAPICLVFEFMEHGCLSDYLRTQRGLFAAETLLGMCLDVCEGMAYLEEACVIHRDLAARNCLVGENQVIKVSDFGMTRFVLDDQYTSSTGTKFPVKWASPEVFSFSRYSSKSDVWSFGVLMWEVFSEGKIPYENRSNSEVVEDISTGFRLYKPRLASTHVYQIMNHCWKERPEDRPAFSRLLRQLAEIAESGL
Put plainly: Inhibition of a panel of kinases, in vitro HotSpot kinase assay: ITK. The note with it: E compounds, Table 17. As to the method:
(§1) The degree of inhibition of a panel of kinases is determined using the in vitro HotSpot kinase assay (purified enzymes, ^33P-ATP, an appropriate substrate and 1 μM ATP).

Assay [3] concerns the target T3, TEC (Homo sapiens, UniProt P42680).
T3 sequence (P42680 1-631): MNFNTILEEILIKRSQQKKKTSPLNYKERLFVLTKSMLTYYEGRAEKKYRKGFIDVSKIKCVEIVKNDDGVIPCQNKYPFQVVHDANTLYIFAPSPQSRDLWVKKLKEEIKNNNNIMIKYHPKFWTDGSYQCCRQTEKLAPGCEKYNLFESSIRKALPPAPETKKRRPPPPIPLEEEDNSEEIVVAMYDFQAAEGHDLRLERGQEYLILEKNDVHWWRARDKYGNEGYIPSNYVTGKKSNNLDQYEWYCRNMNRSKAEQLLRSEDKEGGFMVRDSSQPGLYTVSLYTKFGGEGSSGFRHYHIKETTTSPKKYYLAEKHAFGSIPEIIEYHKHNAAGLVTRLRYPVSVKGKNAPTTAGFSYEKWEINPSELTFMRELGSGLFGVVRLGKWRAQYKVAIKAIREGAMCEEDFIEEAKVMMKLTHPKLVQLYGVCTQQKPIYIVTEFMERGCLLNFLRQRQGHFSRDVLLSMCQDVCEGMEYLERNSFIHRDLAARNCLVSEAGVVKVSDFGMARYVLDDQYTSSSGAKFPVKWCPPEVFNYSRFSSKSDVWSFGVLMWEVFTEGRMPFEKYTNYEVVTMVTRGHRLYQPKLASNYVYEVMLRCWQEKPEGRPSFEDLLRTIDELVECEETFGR
In words: Inhibition of a panel of kinases, in vitro HotSpot kinase assay: TEC. The note with it: E compounds, Table 17. As for the experimental part: as §1

Assay [4] addresses EGFR (Homo sapiens, UniProt P00533). In words: Inhibition of a panel of kinases, in vitro HotSpot kinase assay: EGFR. Conditions: E compounds, Table 17. As to the method:
as §1

Data on 19 compounds can be found in US20210070748A1, “INHIBITORS OF BRUTONS TYROSINE KINASE” (Pharmacyclics LLC, priority 2015, published 2021).

The structures appear in SMILES notation.

A word on the IC50: it is the point on the concentration scale where inhibition reaches its midpoint.

EGFR, sequence (P00533 25-1210): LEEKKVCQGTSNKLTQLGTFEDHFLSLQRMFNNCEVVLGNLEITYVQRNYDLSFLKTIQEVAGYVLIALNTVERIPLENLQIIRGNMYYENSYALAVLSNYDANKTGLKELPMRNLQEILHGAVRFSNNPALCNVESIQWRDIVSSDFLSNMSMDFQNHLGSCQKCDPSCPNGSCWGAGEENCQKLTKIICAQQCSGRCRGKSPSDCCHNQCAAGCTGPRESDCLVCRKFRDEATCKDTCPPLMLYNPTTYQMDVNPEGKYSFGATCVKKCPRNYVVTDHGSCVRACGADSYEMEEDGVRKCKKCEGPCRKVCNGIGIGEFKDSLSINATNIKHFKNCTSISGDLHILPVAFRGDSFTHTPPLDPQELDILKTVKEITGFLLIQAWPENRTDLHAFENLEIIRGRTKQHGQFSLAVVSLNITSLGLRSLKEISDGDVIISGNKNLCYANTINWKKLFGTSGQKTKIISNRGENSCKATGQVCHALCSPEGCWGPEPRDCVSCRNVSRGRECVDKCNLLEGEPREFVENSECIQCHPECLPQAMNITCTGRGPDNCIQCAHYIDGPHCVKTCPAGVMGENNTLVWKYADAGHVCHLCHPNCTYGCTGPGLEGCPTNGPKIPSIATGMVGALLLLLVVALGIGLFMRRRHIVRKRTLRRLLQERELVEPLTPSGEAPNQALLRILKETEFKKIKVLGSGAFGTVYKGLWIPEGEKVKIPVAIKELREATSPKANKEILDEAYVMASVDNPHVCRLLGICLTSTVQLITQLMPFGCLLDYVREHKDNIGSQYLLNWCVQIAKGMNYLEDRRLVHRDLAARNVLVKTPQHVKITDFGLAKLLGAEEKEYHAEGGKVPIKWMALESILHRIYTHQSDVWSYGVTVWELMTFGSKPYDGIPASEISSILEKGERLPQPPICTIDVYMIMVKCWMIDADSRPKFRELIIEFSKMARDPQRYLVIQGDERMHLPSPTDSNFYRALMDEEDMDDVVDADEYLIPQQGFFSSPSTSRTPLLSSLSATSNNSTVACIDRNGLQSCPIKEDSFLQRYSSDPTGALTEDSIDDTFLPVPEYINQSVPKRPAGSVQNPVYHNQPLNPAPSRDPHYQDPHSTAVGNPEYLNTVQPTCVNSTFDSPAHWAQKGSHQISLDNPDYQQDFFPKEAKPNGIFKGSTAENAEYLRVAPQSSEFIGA
T1 sequence (Q06187 whole entry): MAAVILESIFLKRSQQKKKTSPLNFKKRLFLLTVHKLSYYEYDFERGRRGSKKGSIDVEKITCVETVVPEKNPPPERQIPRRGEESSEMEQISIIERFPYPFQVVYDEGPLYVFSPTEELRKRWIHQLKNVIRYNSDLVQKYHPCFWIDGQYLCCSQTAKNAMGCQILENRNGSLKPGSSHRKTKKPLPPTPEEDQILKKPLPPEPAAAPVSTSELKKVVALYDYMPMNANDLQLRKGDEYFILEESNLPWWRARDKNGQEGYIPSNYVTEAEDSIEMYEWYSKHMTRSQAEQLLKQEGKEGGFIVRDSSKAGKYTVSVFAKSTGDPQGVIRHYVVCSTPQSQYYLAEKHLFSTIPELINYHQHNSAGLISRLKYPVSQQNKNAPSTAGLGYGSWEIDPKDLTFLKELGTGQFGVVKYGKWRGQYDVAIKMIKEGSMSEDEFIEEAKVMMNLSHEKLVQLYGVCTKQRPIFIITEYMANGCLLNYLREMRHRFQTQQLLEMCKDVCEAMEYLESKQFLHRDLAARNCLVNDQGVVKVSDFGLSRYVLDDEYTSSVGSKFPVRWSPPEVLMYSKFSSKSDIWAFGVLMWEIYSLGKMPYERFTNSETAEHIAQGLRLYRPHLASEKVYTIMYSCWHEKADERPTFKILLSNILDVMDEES

On to `C=CC(=O)N1CCC[C@@H](Nc2nnc(C(N)=O)c(Nc3ccc(-c4nccs4)cc3)n2)C1` [Example E-63, (R)-3-(1-acryloylpiperidin-3-ylamino)-5-(4-(thiazol-2-yl)phenylamino)-1,2,4-triazine-6-carboxamide], for which the half-maximal inhibitory concentration (IC50) in assay [1] was ≤ 0.01 µM; in assay [2], 0.01 to 0.1 µM; in assay [3], ≤ 0.01 µM; in assay [4], ≤ 0.01 µM.
On to `C=CC(=O)N1CCC[C@@H](Nc2nnc(C(N)=O)c(Nc3ccc(N4CCOCC4=O)cc3)n2)C1` [Example E-62, (R)-3-(1-acryloylpiperidin-3-ylamino)-5-(4-(3-oxomorpholino)phenyl-amino)-1,2,4-triazine-6-carboxamide], for which the IC50 was ≤ 0.01 µM in assay [1], ≤ 0.01 µM in assay [2], ≤ 0.01 µM in assay [3] and 0.01 to 0.1 µM in assay [4].
Take `C=CC(=O)N1CC[C@@H](N(C)c2cnc(C(N)=O)c(Nc3ccc(-c4ncco4)cc3)n2)C1` [Example E-118, (R)-5-((1-acryloylpyrrolidin-3-yl)(methyl)amino)-3-(4-(oxazol-2-yl)phenylamino)pyrazine-2-carboxamide]: the IC50 in assay [1] was ≤ 0.01 µM; in assay [2], ≤ 0.01 µM; in assay [3], ≤ 0.01 µM; in assay [4], 0.01 to 0.1 µM.
As to `C=CC(=O)N1CCC[C@@H](Nc2nnc(C(N)=O)c(Nc3cccc(-c4ncccn4)c3)n2)C1` [Example E-55, (R)-3-(1-acryloylpiperidin-3-ylamino)-5-(3-(pyrimidin-2-yl)phenylamino)-1,2,4-triazine-6-carboxamide], the 50% inhibitory concentration (IC50) in assay [1] is ≤ 0.01 µM; in assay [2] it was 0.01 to 0.1 µM; in assay [3], ≤ 0.01 µM; in assay [4] it was 0.01 to 0.1 µM.
`C=CC(=O)N1CCC[C@@H](Nc2nnc(C(N)=O)c(Nc3ccc4ncsc4c3)n2)C1` [Example E-51, (R)-3-(1-acryloylpiperidin-3-ylamino)-5-(benzo[d]thiazol-6-ylamino)-1,2,4-triazine-6-carboxamide]: the IC50 in assay [1], in assay [2] and in assay [3] was ≤ 0.01 µM in each case.
As for `CN(c1cnc(C(N)=O)c(Nc2ccc(C3CCN(C4CC4)CC3)cc2)n1)[C@@H]1CCN(C(=O)CCCl)C1` [Example E-122, (R)-5-((1-(3-chloropropanoyl)pyrrolidin-3-yl)(methyl)amino)-3-(4-(1-cyclopropylpiperidin-4-yl)phenylamino)pyrazine-2-carboxamide], the IC50 in assay [1], in assay [2] and in assay [3] was ≤ 0.01 µM each time.
Turning to `C=CC(=O)N1CCC[C@@H](Nc2nnc(C(N)=O)c(Nc3ccc(CN(C(=O)OCc4ccccc4)[C@@H](C)C(C)(C)C)cc3)n2)C1` [Example E-56, benzyl 4-(3-((R)-1-acryloylpiperidin-3-ylamino)-6-carbamoyl-1,2,4-triazin-5-ylamino)benzyl((S)-3,3-dimethylbutan-2-yl)carbamate], the IC50 in assay [1] is ≤ 0.01 µM; in assay [2], 0.01 to 0.1 µM; in assay [3], ≤ 0.01 µM.
For `C=CC(=O)NC[C@@H]1CCCN1c1nnc(C(N)=O)c(Nc2ccc(C(C)C)cc2)n1` [Example E-91, (S)-3-(2-(acrylamido-methyl)pyrrolidin-1-yl)-5-(4-isopropylphenyl-amino)-1,2,4-triazine-6-carboxamide], the IC50 lay within 0.01 to 0.1 µM in assay [1], 1 to 10 µM in assay [2] and 0.1 to 1 µM in assay [3].
For `C=CC(=O)N1CCC[C@@H](Nc2nnc(C(N)=O)c(Nc3cccc(C(=O)NCc4ccccc4)c3)n2)C1` [Example E-86, (R)-3-(1-acryloylpiperidin-3-ylamino)-5-(3-(benzyl-carbamoyl)phenyl-amino)-1,2,4-triazine-6-carboxamide] the same measures were ≤ 0.01 µM, 0.01 to 0.1 µM and ≤ 0.01 µM.
Regarding `C=CC(=O)N1CCC[C@@H](Nc2nnc(C(N)=O)c(Nc3ccc(C(C)(C)C#N)cc3)n2)C1` [Example E-49, (R)-3-(1-acryloylpiperidin-3-ylamino)-5-(4-(2-cyanopropan-2-yl)phenylamino)-1,2,4-triazine-6-carboxamide], the IC50 in assay [1], in assay [2] and in assay [3] was ≤ 0.01 µM throughout.
`C=CC(=O)NC[C@H]1CCCCN1c1nnc(C(N)=O)c(Nc2ccc(C(C)C)cc2)n1` [Example E-88, (R)-3-(2-(acrylamido-methyl)piperidin-1-yl)-5-(4-isopropyl-phenylamino)-1,2,4-triazine-6-carboxamide]: the IC50 in assay [1] was ≤ 0.01 µM; in assay [2] it was 0.1 to 1 µM; in assay [3] it was 0.01 to 0.1 µM.
As for `C=CC(=O)N1CCC[C@@H](Nc2nnc(C(N)=O)c(Nc3ccc(S(F)(F)(F)(F)F)cc3)n2)C1` [Example E-78, (R)-3-(1-acryloylpiperidin-3-ylamino)-5-(4-(penta-fluorothio)phenyl-amino)-1,2,4-triazine-6-carboxamide], the IC50 in assay [1] is ≤ 0.01 µM; in assay [2], 0.01 to 0.1 µM; in assay [3] it was ≤ 0.01 µM.
Consider `C=CC(=O)N1CCC[C@@H](Nc2nnc(C(N)=O)c(Nc3cc(F)cc(Cl)c3)n2)C1` [Example E-76, (R)-3-(1-acryloylpiperidin-3-ylamino)-5-(3-chloro-5-fluorophenylamino)-1,2,4-triazine-6-carboxamide], for which the IC50 in assay [1] is ≤ 0.01 µM; in assay [2], 0.01 to 0.1 µM; in assay [3] it was ≤ 0.01 µM.
Turning to `C=CC(=O)N1CCC[C@@H](Nc2nnc(C(N)=O)c(Nc3cccc(-c4ncco4)c3)n2)C1` [Example E-65, (R)-3-(1-acryloylpiperidin-3-ylamino)-5-(3-(oxazol-2-yl)phenylamino)-1,2,4-triazine-6-carboxamide], the IC50 in assay [1] was ≤ 0.01 µM; in assay [2], 0.01 to 0.1 µM; in assay [3], ≤ 0.01 µM.
For the compound `C=CC(=O)N1CCC[C@@H](Nc2nnc(C(N)=O)c(Nc3cccc(Cl)c3)n2)C1` [Example E-75, (R)-3-(1-acryloylpiperidin-3-ylamino)-5-(3-chlorophenylamino)-1,2,4-triazine-6-carboxamide], the results for the IC50 in assay [1], in assay [2] and in assay [3] were ≤ 0.01 µM, 0.01 to 0.1 µM and ≤ 0.01 µM, respectively.
Regarding `C=CC(=O)N1CC[C@@H](N(C)c2cnc(C(N)=O)c(Nc3cc(C)ns3)n2)C1` [Example E-114, (R)-5-((1-acryloylpyrrolidin-3-yl)(methyl)amino)-3-(3-methylisothiazol-5-ylamino)pyrazine-2-carboxamide], the IC50 in assay [1], in assay [2] and in assay [3] was ≤ 0.01 µM each time.
For the compound `C=CC(=O)N1CCC[C@@H](Nc2nnc(C(N)=O)c(Nc3cccc(C(=O)OCC)c3)n2)C1` [Example E-81, (R)-ethyl 3-(3-(1-acryloylpiperidin-3-ylamino)-6-carbamoyl-1,2,4-triazin-5-ylamino)benzoate], the results for the IC50 in assay [1], in assay [2] and in assay [3] were ≤ 0.01 µM, 0.1 to 1 µM and ≤ 0.01 µM, respectively.
As for `C=CC(=O)NC[C@H]1CCCN1c1nnc(C(N)=O)c(Nc2ccc(C(C)C)cc2)n1` [Example E-90, (R)-3-(2-(acrylamido-methyl)pyrrolidin-1-yl)-5-(4-isopropylphenyl-amino)-1,2,4-triazine-6-carboxamide], the values for the IC50 in assay [1], in assay [2] and in assay [3] were ≤ 0.01 µM, 0.01 to 0.1 µM and ≤ 0.01 µM, respectively.
`C=CC(=O)N1CCC[C@@H](Nc2nnc(C(N)=O)c(Nc3cccc(C(=O)N4CCCCC4)c3)n2)C1` [Example E-87, (R)-3-(1-acryloylpiperidin-3-ylamino)-5-(3-(piperidine-1-carbonyl)phenylamino)-1,2,4-triazine-6-carboxamide]: the 50% inhibitory concentration (IC50) in assay [1] was ≤ 0.01 µM; in assay [2], 0.1 to 1 µM; in assay [3] it was ≤ 0.01 µM.
